# What was measured:
# human mGluR7 = target: T1, human mGluR7 (Homo sapiens, UniProt Q14831); test: Multispan Allosteric Profiling panel, Ca2+ (Gqi5); assay type: cell-based
# T1 construct: host or cells: HEK293 co-expressing Gqi5
# OF1 mice = test: 6-Hz electroshock-induced seizures; assay type: in vivo; details: dose-range 10–30, ip
# Procedure: SAR218645 (10 and 30 mg/kg, po) and the reference anticonvulsant agent, levetiracetam (20 mg/kg), were administered ip. to OF1 mice (12–14 g) 30 min prior to test, respectively. An electrical stimulus (6 Hz, 0.2 ms rectangular pulse, 3 s duration, 32 mA) was applied to both corneas. Animals were closely observed and rated for seizure behavior according to a modified Racine scale. Kruskal-Wallis multiple comparisons test was used to assess potential differences between treatment groups.
# mice = tested on: mice; design: method as in earlier work; details: wide dose-range; cited from earlier work
# Swiss mice = test: Novel object recognition task, MK-801-induced deficit; assay type: in vivo
# From the text: The test apparatus was based on that described by Ennaceur and Delacour[37] in rats and adapted for use in mice[38]. The apparatus consisted of a uniformly lit (20 lux) PVC enclosure (52 L × 52 W × 40 H cm) with a video camera positioned 160 cm above the bench. The objects to be discriminated were a metal triangle (3.3 cm height, 5.5 cm wide) and a plastic piece of construction game (3 cm height and 3 cm wide). The observer was located in an adjacent room fitted with a video monitoring system. The experiment consisted of 3 sessions. During the first session, male Swiss mice (25–30 g) were allowed to become familiar with the experimental environment for 5 min (S1). Time spent active (animal moving around with or without sniffing and exploration) was measured. […] Times spent exploring the familiar and novel objects were recorded. […] Data (time exploring each of the two objects, in seconds) were analyzed with a two-way ANOVA, with the treatment and the object as the between factors, followed by a Winer analysis for comparing the time spent exploring the familiar versus the novel object for each treatment. […]
# Sprague-Dawley rats = test: Amphetamine-induced disruption of auditory evoked potentials (AEP); assay type: in vivo
# From the text: All recordings were made using Spike2 software (Cambridge Electronic Design, Cambridge, UK) running on a Windows PC connected to a 1401 interface (Cambridge Electronic Design, Cambridge, UK). EEG recordings were created by connecting the skull plug to an amplifying head stage (AI 1401, Axon Instruments, Union City, CA, USA), via a 6-channel commutator and cable (Plastics One, Roanoke, VA, USA). The signal was then further amplified with a multichannel amplifier (Cyberamp 380, Axon Instruments, Union City, CA, USA). Auditory stimuli were controlled by the interface via an eight channel power amplifier (SA8, Tucker Davis Technologies, Alachua, FL) connected to a patch panel (PP16, Tucker Davis Technologies), which was connected to speakers located above each cage (TDT Magnetic Speakers, Tucker Davis Technologies). During recording sessions, animals were placed inside standard mouse cages (30 × 15 × 15 cm) and rigged so that the six channel cables could connect with the rest of the apparatus outside of the cage.
# Male Sprague-Dawley rats (150–180 g at arrival) were anesthetized with 3% isoflurane and their scalp was shaved and prepared for surgery. An incision was made in the scalp and the skin was retracted to allow direct contact with the skull surface. The skull was cleaned with a dry Q-tip and five holes were drilled through the skull. Three holes were drilled at coordinates AP + 1 mm, ML + 1 mm (reference); AP−4 mm, ML ± 4 mm (leads 1 and 2) relative to bregma, while an additional hole was drilled in the frontal area (ground) and another hole was drilled at the midpoint between the anterior and posterior coordinate (anchor). […]
# AEP data analysis: Data were collected and analyzed using Spike2 software (CED Software, Cambridge, UK). […] Then a horizontal cursor was placed at the highest and lowest (peak and trough) point of the P1/N1 wave, for both the wave occurring to the first tone (S1) and to the second tone (S2), and the value was recorded into an Excel spreadsheet. […]
# T1 sequence (Q14831 35-915): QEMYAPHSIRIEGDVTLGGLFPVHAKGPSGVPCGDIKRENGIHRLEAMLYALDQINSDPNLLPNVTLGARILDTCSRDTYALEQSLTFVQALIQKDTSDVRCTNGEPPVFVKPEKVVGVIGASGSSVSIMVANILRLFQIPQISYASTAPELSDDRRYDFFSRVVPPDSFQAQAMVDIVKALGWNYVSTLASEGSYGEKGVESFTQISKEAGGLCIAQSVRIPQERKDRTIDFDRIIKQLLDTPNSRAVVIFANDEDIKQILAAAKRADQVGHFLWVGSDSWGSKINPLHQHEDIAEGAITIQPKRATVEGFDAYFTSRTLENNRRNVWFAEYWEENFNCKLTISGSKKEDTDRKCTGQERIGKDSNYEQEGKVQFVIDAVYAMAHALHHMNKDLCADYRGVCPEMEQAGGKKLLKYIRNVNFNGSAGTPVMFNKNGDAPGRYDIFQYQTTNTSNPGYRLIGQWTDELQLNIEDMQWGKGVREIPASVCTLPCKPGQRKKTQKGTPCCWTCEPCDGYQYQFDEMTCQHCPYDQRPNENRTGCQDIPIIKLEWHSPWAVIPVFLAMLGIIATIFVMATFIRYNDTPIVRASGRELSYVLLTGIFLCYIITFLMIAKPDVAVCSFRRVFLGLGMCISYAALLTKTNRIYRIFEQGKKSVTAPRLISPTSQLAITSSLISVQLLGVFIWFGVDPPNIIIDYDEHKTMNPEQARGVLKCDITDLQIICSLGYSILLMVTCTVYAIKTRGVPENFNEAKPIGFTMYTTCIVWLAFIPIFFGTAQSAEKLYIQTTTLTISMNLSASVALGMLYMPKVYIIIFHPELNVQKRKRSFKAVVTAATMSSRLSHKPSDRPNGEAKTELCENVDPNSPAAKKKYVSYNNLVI
structure (smiles),measurement,setting,value
"CC1(C)CCc2cc(OC[C@@H]3Cn4ccc(=O)nc4O3)ccc21 [SAR218645, (S)-2-(1,1-dimethyl-indan-5-yloxymethyl)-2,3-dihydro-oxazolo[3,2-a]pyrimidin-7-one]",effect on glutamate-induced activation,human mGluR7; 10 μM SAR218645,no effect
same,calcium response to compound alone,human mGluR7; SAR218645 alone,did not elicit a calcium response
same,Minimal active dose,OF1 mice,>30 mg/kg
same,effect on the ability of haloperidol and risperidone to alleviate psychostimulant-induced hyperactivity,mice,did not alter
same,effect on preferential investigation of the novel object,"Swiss mice; 0.01, 0.03 and 0.1 mg/kg po, coadministered with MK-801 (0.0125 mg/kg, ip)",significantly restored
same,Minimal active dose,"Swiss mice; dose-range 0.01–1, po, Swiss mice",0.01 mg/kg
same,effect on amphetamine-disrupted auditory gating (S2/S1 ratio),"Sprague-Dawley rats; 0.3 and 3 mg/kg po, amphetamine 3 mg/kg",attenuated amphetamine-induced disrupted gating
same,Minimal active dose,"Sprague-Dawley rats; dose-range 0.3–3, po, Sprague-Dawley rats",0.3 mg/kg
